Data on nine molecules can be found in patent publication US20230183219A1, “CONDENSED SUBSTITUTED HYDROPYRROLES AS ANTAGONISTS OF THE MUSCARINIC ACETYLCHOLINE RECEPTOR M4” (Vanderbilt University, priority 2020, published 2023).

The target in assay [1] is T1, Human M4 (Homo sapiens, UniProt P08173).
T1 construct: Human or rat M4 cDNA, along with the chimeric G protein Gqi5, were transfected into Chinese hamster ovary (CHO-K1) cells; expressed in transfected cells; host or cells: CHO-K1 (Chinese hamster ovary, ATCC), stably co-expressing Gqi5
T1 sequence (P08173 1-479): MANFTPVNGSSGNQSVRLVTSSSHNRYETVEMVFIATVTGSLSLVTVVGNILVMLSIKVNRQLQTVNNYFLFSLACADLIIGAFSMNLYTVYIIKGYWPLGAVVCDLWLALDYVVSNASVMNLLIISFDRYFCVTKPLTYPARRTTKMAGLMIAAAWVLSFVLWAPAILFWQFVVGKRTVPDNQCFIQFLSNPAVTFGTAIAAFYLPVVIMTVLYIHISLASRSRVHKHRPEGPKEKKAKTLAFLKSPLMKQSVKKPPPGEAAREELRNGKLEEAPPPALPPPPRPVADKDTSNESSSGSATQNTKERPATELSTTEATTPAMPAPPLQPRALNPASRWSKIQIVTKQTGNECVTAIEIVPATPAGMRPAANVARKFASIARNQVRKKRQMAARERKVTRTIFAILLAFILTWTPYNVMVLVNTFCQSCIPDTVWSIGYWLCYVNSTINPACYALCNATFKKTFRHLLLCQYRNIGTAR
The experiment in a line: mAChR M4 cell-based functional assay (calcium flux, decrease of EC80 acetylcholine response). Particulars: for remaining activity at 30 µM: % ACh maximum at 30 μM, read-out: Human M4 Emin; for IC50: M4/Gqi5/CHO-K1 cells, decrease of response to EC80 acetylcholine. The gist of the method: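 IC50 reflects inhibition of an EC80 acetylcholine calcium response, fitted by four-parameter logistic equation. Fluo-4-loaded M4/Gqi5 CHO-K1 cells received compound (10-point, 1:3 series) 2 s into the FDSS read, then EC20 acetylcholine at 143 s and EC80 at 268 s.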

Assay [2] has as its system haloperidol-induced catalepsy. Particulars: cited from earlier work.

SMILES strings stand for the structures.

For `Cn1cc2cc(-c3cc(C#N)c(N[C@H]4C[C@@H]5CN(CC6CCOCC6)C[C@@H]5C4)nn3)ccc2n1` [Example 153, 6-(2-methyl-2H-indazol-5-yl)-3-(((3aR,5s,6aS)-2-((tetrahydro-2H-pyran-4-yl)methyl)octahydro-cyclopenta[c]pyrrol-5-yl)amino)pyridazine-4-carbonitrile], in assay [1], the remaining activity at 30 µM worked out at 11% and the IC50 was found to be 9.7 nM.

With `Cn1cc2cc(-c3cc(C#N)c(N[C@H]4C[C@@H]5CN(C[C@@H]6CCOC6)C[C@@H]5C4)nn3)ccc2n1` [Example 154, 6-(2-methyl-2H-indazol-5-yl)-3-(((3aR,5s,6aS)-2-(((S)-tetrahydrofuran-3-yl)methyl)octahydro-cyclopenta[c]pyrrol-5-yl)amino)pyridazine-4-carbonitrile], in assay [1], the remaining activity at 30 µM was 15% and the IC50 was found to be 87.8 nM.

As to `Cn1cc2cc(-c3cc(C#N)c(N[C@H]4C[C@@H]5CN(C[C@H]6CCOC6)C[C@@H]5C4)nn3)ccc2n1` [Example 155, 6-(2-methyl-2H-indazol-5-yl)-3-(((3aR,5s,6aS)-2-(((R)-tetrahydrofuran-3-yl)methyl)octahydro-cyclopenta[c]pyrrol-5-yl)amino)pyridazine-4-carbonitrile], in assay [1], the remaining activity at 30 µM stood at 5% and the IC50 was 103 nM.

Regarding `Cn1cc2cc(-c3cc(C#N)c(N[C@H]4C[C@@H]5CN(C[C@H]6COCCO6)C[C@@H]5C4)nn3)ccc2n1` [Example 156, 3-(((3aR,5s,6aS)-2-(((S)-1,4-dioxan-2-yl)methyl)octahydro-cyclopenta[c]pyrrol-5-yl)amino)-6-(2-methyl-2H-indazol-5-yl)pyridazine-4-carbonitrile], in assay [1], the remaining activity at 30 µM is 12% and the IC50 came out at 10.1 nM.

With `Cn1cc2cc(-c3cc(C#N)c(N[C@H]4C[C@@H]5CN(C[C@@H]6COCCO6)C[C@@H]5C4)nn3)ccc2n1` [Example 157, 3-(((3aR,5s,6aS)-2-(((R)-1,4-dioxan-2-yl)methyl)octahydro-cyclopenta[c]pyrrol-5-yl)amino)-6-(2-methyl-2H-indazol-5-yl)pyridazine-4-carbonitrile], in assay [1], the remaining activity at 30 µM amounted to 5% and the IC50 turned out to be 54.9 nM.

Consider `Cn1cc2cc(-c3cc(C#N)c(N[C@H]4C[C@@H]5CN(CC6(C#N)CC6)C[C@@H]5C4)nn3)ccc2n1` [Example 160, 3-(((3aR,5s,6aS)-2-((1-cyano-cyclopropyl)methyl)octahydro-cyclopenta[c]pyrrol-5-yl)amino)-6-(2-methyl-2H-indazol-5-yl)pyridazine-4-carbonitrile], for which, in assay [1], the remaining activity at 30 µM was found to be 6% and the IC50 worked out at 688 nM.

With `Cn1cc2cc(-c3cc(C#N)c(N[C@H]4C[C@@H]5CN(C[C@H]6CC7CCC6O7)C[C@@H]5C4)nn3)ccc2n1` (stereo partly drawn) [Example 161, 3-(((3aR,5s,6aS)-2-(((2R)-7-oxabicyclo[2.2.1]heptan-2-yl)methyl)octahydro-cyclopenta[c]pyrrol-5-yl)amino)-6-(2-methyl-2H-indazol-5-yl)pyridazine-4-carbonitrile], in assay [1], the remaining activity at 30 µM was determined as 5% and the IC50 came out at 2 nM.

Take `Cc1ccc(F)cc1-c1cc(C(F)(F)F)c(N[C@H]2C[C@@H]3CN(CC4CCOCC4)C[C@@H]3C2)nn1` [compound 11]: in assay [1], the remaining activity at 30 µM amounted to 4% and the IC50 was found to be 2.41 nM.

For `CN1[C@@H]2C[C@@H](OC(=O)[C@H](CO)c3ccccc3)C[C@H]1[C@@H]1O[C@@H]12` [scopolamine], in assay [2] (M4KO mice), the “reduction of catalepsy induced by haloperidol” value was “ineffective”. The “reversal of catalepsy induced by haloperidol” value in assay [2] (WT mice) was “completely reversed”.

One may read the IC50 as the midpoint of a concentration-inhibition curve.
